The record followed here is patent US4409221A, “1,2,3,4,4a,9b-Hexahydro-4a-piperazinylmethyl-4-dibenzofuranone or -dibenzofuranol derivatives” (Riom Laboratories - Cerm S.A., priority 1981, dated 1983).

Structures can show the parent of a compound that is named as a salt.

Series [1] has as its system histamine type bronchospasms. Briefly: anti-bronchoconstrictor activity in guineapigs, KONZETT and ROSSLER technique, histamine-induced bronchospasm. The settings on record: histamine 5 μg/kg^-1 i.v.; for inhibition at 1 mg/kg / inhibition at 5 mg/kg: iv, anaesthetised guineapigs, read-out: Percentage Inhibition. In kind it is in vivo. The method, then:
(§1) The anti-bronchoconstrictor activity of the compounds of the invention is evaluated in guineapigs by the KONZETT and ROSSLER technique.
(§2) After being anaesthetised with ethyl carbamate and submitted to tracheotomy, the animals are given artificial breathing at constant volume and the intertracheal pressure is recorded, which makes an indirect measurement of the total pulmonary resistance possible. Histamine (5 μg/kg^-1 i.v.) is administered before, and at different time intervals after, intravenous administration of the compounds of the invention.
(§3) The activity of the product under study is evaluated by comparing the amplitudes of the bronchospasms before and after treatment and calculating the percentage change. The duration of action of the compounds under study has also been observed. (Table I). This table also contains an acute toxicity rating (LD50) determined by oral administration in mice.

The nature of series [2]: acute toxicity rating (LD50) by oral administration in mice. The settings on record: mouse, in vivo. The method, then: as §3
The subject of series [3] is serotoninergic bronchospasms. In words: bronchospasm experiment repeated replacing histamine with serotonin. The settings on record: iv, 1 h; compound 5 mg/kg^-1 intravenously; serotonin 20 μg/kg^-1 I.V.; observed during 60 minutes. In kind it is in vivo, guineapigs. The method, then: as §1, §2, §3
In addition, the bronchosparm experiment was repeated, but replacing histamine with serotonine, (20 μg/kg^-1, I.V.).

Regarding `COC(CN1CCN(CC23Oc4ccccc4C2CCCC3O)CC1)c1ccccc1` (centres unmarked) [Compound 8], in series [1] (compound 1 mg/kg^-1 I.V.), the “Duration (duration of action)” value was greater than 60 min and the inhibition at 1 mg/kg turned out to be 95.5 ± 4.6%. This compound also displayed an LD50 in series [2] of 480 mg/kg.

For the compound `CCOC(CN1CCN(CC23Oc4ccc(OC)cc4C2CCCC3O)CC1)c1ccccc1` (centres unmarked) [Compound 6], in series [1] (compound 5 mg/kg^-1 I.V.), the “Duration (duration of action)” value is greater than 45 min and the inhibition at 5 mg/kg is 48.2 ± 9.2%. Moreover, the median lethal dose (LD50) in series [2] stood at 900 mg/kg.

On to `CCOC(CN1CCN(CC23Oc4ccc(F)cc4C2CCCC3O)CC1)c1ccccc1` (centres unmarked) [Compound 2, 1,2,3,4,4a,9b-hexahydro-4a-(1-[4-(2-ethoxy-2-phenyl)ethyl]piperazinyl)methyl-8-fluoro-4-dibenzofuranol, 2 HCl], for which, in series [1] (compound 5 mg/kg^-1 I.V.), the “Duration (duration of action)” value is greater than 60 min and the inhibition at 5 mg/kg was found to be 95 ± 3.1%. The compound further registered an LD50 in series [2] of 900 mg/kg.

Take `CCOC(CN1CCN(CC23Oc4ccccc4C2CCCC3O)CC1)c1ccccc1` (centres unmarked) [Compound 1, 1,2,3,4,4a,9b-hexahydro-4a-(1-[4-(2-ethoxy-2-phenyl)ethyl]piperazinyl)methyl-4-dibenzofuranol]: the “Duration (duration of action)” value in series [1] (compound 1 mg/kg^-1 I.V.) and in series [1] (compound 5 mg/kg^-1 I.V.) was greater than 60 min each time. Also, the inhibition at 1 mg/kg in series [1] (compound 1 mg/kg^-1 I.V.) is 87.7 ± 6.6%. Moreover, the inhibition at 5 mg/kg was determined as 100% in series [1] (compound 5 mg/kg^-1 I.V.) and 87.6% in series [3].

As for `CCOC(CN1CCN(CC23Oc4c(OC)cccc4C2CCCC3=O)CC1)c1ccccc1` (centres unmarked) [Compound 3], in series [1] (compound 5 mg/kg^-1 I.V.), the “Duration (duration of action)” value was greater than 45 min and the inhibition at 5 mg/kg stood at 97.5 ± 2.5%. The LD50 in series [2] came out at 320 mg/kg.

With `CCOC(CN1CCN(CC23Oc4ccccc4C2CCCC3=O)CC1)c1ccccc1` (centres unmarked) [Compound 5, 1,2,3,4,4a,9b-hexahydro-4a-(1-[4-(2-ethoxy-2-phenyl)ethyl]piperazinyl)methyl-4-dibenzofuranone], in series [1] (compound 5 mg/kg^-1 I.V.), the “Duration (duration of action)” value is greater than 45 min and the inhibition at 5 mg/kg was found to be 80.2 ± 9.9%. In addition, the LD50 in series [2] came to 900 mg/kg.

A word on the inhibition: it is the change of the read-out against control, counted positive when it falls. Broadly, the LD50 is the dose expected to kill half of the subjects tested. A high value points to lower toxicity.
